Assay results from US12358983B2, “Combination of anti CD19 antibody with a BCL-2 inhibitor and uses thereof” (Incyte Corporation, priority 2016, dated 2025).

Key:
[1] = tested on: TOLEDO human lymphoma cell tumors; test: Subcutaneous human lymphoma cell xenograft model in SCID mice; conditions: MOR00208 11 mg/kg i.p. twice weekly
Protocol: Toledo cell line and culture medium were purchased and provided by Oncodesign. […] The cells are adherent to plastic flasks.
A statistical test (analysis of variance, ANOVA) was performed to test for homogeneity between groups. MOR208 was injected intraperitoneally (IP) into the peritoneal cavity of mice. Combined substance was administered by oral gavage (per os, PO) via a gavage tube.
The treatment schedule initiated at D23 was as follows:
Animals from group 1 received one daily PO administration of PEP and one IP injection twice a week of PBS.
Animals from group 4 received one IP injection of MOR208 at 11 mg/kg/inj on D23, D27, D30, D34, D37 and D41 followed by a single IP injection of MOR208 at 11 mg/kg/inj on D48 (twice a week).
The viability and behavior were recorded every day. Body weights and tumor volume were measured twice a week. The length and width of the tumor were measured twice a week with calipers and the volume of the tumor was estimated by the formula:

MEC-1 cells = test: Cytotoxicity (ADCC assay with NK effector cells) of MOR00208 and venetoclax alone and in combination in MEC-1 cells; format: cell-based
Excerpt: Cell lines tested: MEC-1 cells (DSMZ# ACC497). Culture conditions of cell lines used are according to supplier's information. Cell Medium: lscove's Modified Dulbecco's Medium (IMDM), Invitrogen, Cat No.: 31980; RPMI1640, Invitrogen, Cat No.: 31870; GlutaMAX, Invitrogen, CAT No.: 35050; FCS: Sigma CAT No.: F7524 LOT No.: 111M3396. NKs: RPMI1640, with GlutaMAX, Invitrogen, Cat No.: 31870, 10% FCS; Biocoll: Biochrome AG CAT No.: L6115 LOT No.: 0034D; MACS NK cell isolation kit: Miltenyi Biotec CAT No.: 130-092-657 LOT No.: 5150402327; venetoclax: Selleck Chem. CAT No.: S8048 LOT No.: S804803; FCS: Sigma CAT No.: F7524 LOT No.: 111M3396; and RefmAb33 (anti-RSV) with same Fc region as MOR00208.
The cytotoxic potential of MOR00208 and venetoclax alone and in combination were tested in the MEC-1 cell line (CLL). Target cell killing is measured using the following parameters: venetoclax mono treatment at concentrations of 3 μM, 6.5 μM, and 10 μM; MOR00208 mono treatment at concentrations of 0.01 pM, 0.1 pM, 1 pM, 10 pM, 100 pM and 10 nM, and the combination treatment of the listed venetoclax and MOR00208 concentrations. The following are used as controls: RefnnAb33, NK cells alone, MEC-1 cells alone or DMSO. In the venetoclax mono groups as well as in the MOR00208+venetoclax combination groups, target cells were pretreated with venetoclax or with DMSO control for 24 hours followed by removal of the dead cells prior to the ADCC assay. A dead cell removal kit was used to remove cells killed by the cytotoxic effect of venetoclax. The dead cell removal kit was implemented to mimick the removal of dead cells that also occurs in vivo and to prevent false negative interference of the dead cells with the subsequent ADCC assay. For the ADCC assay, target cells are counted and stained using CFSE at a final concentration of 1 μg/mL. For the control group, i.e. DMSO treated target cells, the effector: target (E:T) cell ratio was adjusted to 2:1, i.e. 1×10E6/nnL effector cells (NK cells) and 5×10E5/mL target cells (MEC-1 cells). […] The ADCC assays were performed as follows: using 96 well plates, 100 μL of MEC-1 target cell suspension was added per well, followed by 100 μL NK effector cell suspension per well. Mixed cell suspensions were centrifuged and resuspended in 100 μL antibody containing medium or the according control solution. The antibodies were diluted in a range of 10 nM-0.01 pM (corresponds to 1.5 μg/mL-1.5 pg/mL) in medium. The ADCC assays were incubated for 2 hours in a CO2-incubator at 37° C. After 10 minutes incubation on ice, 50 μL DAPI solution was added to each well (final concentration 1 μg/mL) and incubated for additional 10 minutes on ice. The ADCC measurements were performed on a BD FACSVerse instrument. Dead target cells were identified as DAPI positive cells.
Combination Index (CI) calculations are completed in order to determine synergy of the combination of the exemplified anti-CD19 antibody and venetoclax as compared to MOR00208 and venetoclax alone. Such calculations are described in Ting-Chao Chou, Theoretical Basis, Experimental Design, and Computerized Simulation of Synergism and Antagonism in Drug Combination Studies, Pharmacol Rev 58:621-681 (2006), which is incorporated by reference in its entirety and Chou TC, Talalay P, Quantitative analysis of dose-effect relationships: the combined effects of multiple drugs or enzyme inhibitors. Adv Enzyme Regul 22: 27-55 (1984), which is incorporated by reference in its entirety. The methods of Chou-Talalay are carried out using the CI-isobol method.
The median-effect equation models the effect of an inhibitor (such as a drug) as Fa/Fu=(D/D50)^m, where D is the dose, Fa and Fu is the fraction of the system affected and unaffected by the dose D (Fa+Fu=1); D50 is the dose producing the median effect (e.g. IC50, ED50, LD50). The constant m determines the shape of the dose-effect curve.

MOR00208: anti-CD19 antibody; heavy chain SEQ ID NO: 14, light chain SEQ ID NO: 15
Median Tumor Doubling Time [1]: 8.0 days
Median Survival (Days Post-Randomization) ([1]; humane endpoint tumor volume 2000 mm3): 25.3 days
Median % Increase in Doubling Time (IDT) ([1]; vs. PEP/PBS Control): 18%
Median % Increase in Lifespan (ILS) ([1]; vs. PEP/PBS Control): 20%
Actual MOR00208 Effect (MEC-1 cells; Exp 1, MOR00208 1.50E+00 μg/mL): 69.4 % dead cells
Actual MOR00208 Effect (MEC-1 cells; Exp 1, MOR00208 1.50E−02 μg/mL): 66.8 % dead cells
Actual MOR00208 Effect (MEC-1 cells; Exp 1, MOR00208 1.50E−03 μg/mL): 43.4 % dead cells
Actual MOR00208 Effect (MEC-1 cells; Exp 1, MOR00208 1.50E−04 μg/mL): 22.8 % dead cells
Actual MOR00208 Effect (MEC-1 cells; Exp 1, MOR00208 1.50E−05 μg/mL): 17.4 % dead cells
Actual MOR00208 Effect (MEC-1 cells; Exp 1, MOR00208 1.50E−06 μg/mL): 15.3 % dead cells
Theoretical MOR00208 Dose (MEC-1 cells; Exp 1, same effect as MOR00208 1.50E+00 μg/mL + venetoclax 3.0 μM): * 1.00E+03^ μg/mL
Theoretical MOR00208 Dose (MEC-1 cells; Exp 1, same effect as MOR00208 1.50E+00 μg/mL + venetoclax 6.5 μM): * 1.00E+03^ μg/mL
Theoretical MOR00208 Dose (MEC-1 cells; Exp 1, same effect as MOR00208 1.50E+00 μg/mL + venetoclax 10.0 μM): * 1.00E+03^ μg/mL
Theoretical MOR00208 Dose (MEC-1 cells; Exp 1, same effect as MOR00208 1.50E−02 μg/mL + venetoclax 3.0 μM): 0.0304 µg/mL
Theoretical MOR00208 Dose (MEC-1 cells; Exp 1, same effect as MOR00208 1.50E−02 μg/mL + venetoclax 6.5 μM): * 1.00E+03^ μg/mL
Theoretical MOR00208 Dose (MEC-1 cells; Exp 1, same effect as MOR00208 1.50E−02 μg/mL + venetoclax 10.0 μM): * 1.00E+03^ μg/mL
Theoretical MOR00208 Dose (MEC-1 cells; Exp 1, same effect as MOR00208 1.50E−03 μg/mL + venetoclax 3.0 μM): 0.00125 µg/mL
Theoretical MOR00208 Dose (MEC-1 cells; Exp 1, same effect as MOR00208 1.50E−03 μg/mL + venetoclax 6.5 μM): 0.00404 µg/mL
Theoretical MOR00208 Dose (MEC-1 cells; Exp 1, same effect as MOR00208 1.50E−03 μg/mL + venetoclax 10.0 μM): 0.00914 µg/mL
Theoretical MOR00208 Dose (MEC-1 cells; Exp 1, same effect as MOR00208 1.50E−04 μg/mL + venetoclax 3.0 μM): 0.000132 µg/mL
Theoretical MOR00208 Dose (MEC-1 cells; Exp 1, same effect as MOR00208 1.50E−04 μg/mL + venetoclax 6.5 μM): 0.00041 µg/mL
Theoretical MOR00208 Dose (MEC-1 cells; Exp 1, same effect as MOR00208 1.50E−04 μg/mL + venetoclax 10.0 μM): 0.000543 µg/mL
Theoretical MOR00208 Dose (MEC-1 cells; Exp 1, same effect as MOR00208 1.50E−05 μg/mL + venetoclax 3.0 μM): 1.41e-05 µg/mL
Theoretical MOR00208 Dose (MEC-1 cells; Exp 1, same effect as MOR00208 1.50E−05 μg/mL + venetoclax 6.5 μM): 8.47e-05 µg/mL
Theoretical MOR00208 Dose (MEC-1 cells; Exp 1, same effect as MOR00208 1.50E−05 μg/mL + venetoclax 10.0 μM): 0.000163 µg/mL
Theoretical MOR00208 Dose (MEC-1 cells; Exp 1, same effect as MOR00208 1.50E−06 μg/mL + venetoclax 10.0 μM): 2.33e-05 µg/mL
Actual MOR00208 Effect (MEC-1 cells; Exp 2, MOR00208 1.50E+00 μg/mL): 74.8 % dead cells
Actual MOR00208 Effect (MEC-1 cells; Exp 2, MOR00208 1.50E−02 μg/mL): 69.6 % dead cells
Actual MOR00208 Effect (MEC-1 cells; Exp 2, MOR00208 1.50E−03 μg/mL): 55.9 % dead cells
Actual MOR00208 Effect (MEC-1 cells; Exp 2, MOR00208 1.50E−04 μg/mL): 40.3 % dead cells
Actual MOR00208 Effect (MEC-1 cells; Exp 2, MOR00208 1.50E−05 μg/mL): 34.5 % dead cells
Actual MOR00208 Effect (MEC-1 cells; Exp 2, MOR00208 1.50E−06 μg/mL): 29.7 % dead cells
Theoretical MOR00208 Dose (MEC-1 cells; Exp 2, same effect as MOR00208 1.50E+00 μg/mL + venetoclax 3.0 μM): * 1.00E+03^ μg/mL
Theoretical MOR00208 Dose (MEC-1 cells; Exp 2, same effect as MOR00208 1.50E+00 μg/mL + venetoclax 6.5 μM): * 1.00E+03^ μg/mL
Theoretical MOR00208 Dose (MEC-1 cells; Exp 2, same effect as MOR00208 1.50E+00 μg/mL + venetoclax 10.0 μM): * 1.00E+03^ μg/mL
Theoretical MOR00208 Dose (MEC-1 cells; Exp 2, same effect as MOR00208 1.50E−02 μg/mL + venetoclax 3.0 μM): * 1.00E+03^ μg/mL
